Measured values from ChEMBL document CHEMBL5356993, “Novel pyrazolo[3,4-d]pyrimidine derivatives: design, synthesis, anticancer evaluation, VEGFR-2 inhibition, and antiangiogenic activity” (RSC Med Chem, 2023).

Tests used:
HUVEC [1] = experiment: Antiangiogenic activity against HUVEC cells assessed as decrease in healing rate at IC50 incubated for 72 hrs by wound healing assay relative to control; format: functional, Homo sapiens; set-up: scale not given: the % may be the effect or the level left
HUVEC [2] = experiment: Antiangiogenic activity against HUVEC cells assessed as wound closure at IC50 incubated for 72 hrs by wound healing assay (reference value: 98.518 %); format: functional, Homo sapiens
MDA-MB-468 = experiment: Induction of apoptosis in human MDA-MB-468 cells assessed as increase in caspase-3 level incubated for 2 hrs by ELISA (reference value: 2.109 ng/ml); format: functional

With `CCN(CC)CCNC(=O)c1c(C)[nH]c(/C=C2\C(=O)Nc3ccc(F)cc32)c1C` [SUNITINIB] the Activity (HUVEC [1]) was 41%, the Activity (HUVEC [2]) was 57.777% and the Activity (MDA-MB-468) was 21.83 ng/mL.
